Results: patent US10443078B2, “Pichia kudriavzevii NG7 microorganism and uses thereof” (Korea Research Institute of Bioscience and Biotechnology, priority 2014, dated 2019)
Numbered stars: 1 amine (or outer) side, 2 acyl side, 3 side chain; on linkers, the order of the positions; unused ones are H or OH. Square brackets hold non-standard residues; d marks the D form. Peptide text beside a SMILES is read from it. X1 = CC[C@@H](C)[C@@H](O[*:1])C(=O)[*:2]; NMeVal(β-OH) = CN[C@H](C(=O)O)C(C)(C)O; NMeF = CN[C@@H](Cc1ccccc1)C(=O)O; aIle = CC[C@@H](C)[C@H](N)C(=O)O; NMeV = CN[C@H](C(=O)O)C(C)C

Columns and labels:
Assay in all cases: Antibiotic resistance of isolated microorganisms on YPD solid medium
Details in all cases: zeocin, G418, nourseothricin, hygromycin 100 μg/mL, cycloheximide 1 μg/mL, aureobasidin A 0.1 μg/mL, 30° C.
[1] = tested on: NG1 microorganism; format: cell-based, Issatchenkia occidentalis
Protocol: (§1) The antibiotic resistance of the selected three different kinds of microorganisms to various antibiotics was examined. The antibiotics used were zeocin (100 μg/mL), G418 (100 μg/mL), cycloheximide (1 μg/mL), aureobasidin A (0.1 μg/mL), nourseothricin (100 μg/mL), and hygromycin (100 μg/mL). Each of the cell cultures of the isolated microorganisms was dotted on YPD solid medium (yeast extract (1%), peptone (2%), glucose (2%), and agar (2%)) and cultured at 30° C.

[2] = tested on: 2-2 microorganism; format: cell-based, Pichia kudriavzevii
Protocol: as §1

[3] = tested on: NG7 microorganism; format: cell-based, Pichia kudriavzevii
Protocol: as §1

Compound | Resistance of microorganism NG1 to antibiotic [1] | Resistance of microorganism NG1 to antibiotic ([1]; listed as aureobasidin A) | Resistance of microorganism 2-2 to antibiotic [2] | Resistance of microorganism 2-2 to antibiotic ([2]; listed as aureobasidin A) | Resistance of microorganism NG7 to antibiotic [3] | Resistance of microorganism NG7 to antibiotic ([3]; listed as aureobasidin A) | Resistance of microorganism NG1 to antibiotic ([1]; listed as cycloheximide) | Resistance of microorganism 2-2 to antibiotic ([2]; listed as cycloheximide) | Resistance of microorganism NG7 to antibiotic ([3]; listed as cycloheximide) | Resistance of microorganism NG1 to antibiotic ([1]; listed as zeocin) | Resistance of microorganism 2-2 to antibiotic ([2]; listed as zeocin) | Resistance of microorganism NG7 to antibiotic ([3]; listed as zeocin) | Resistance of microorganism NG1 to antibiotic ([1]; listed as nourseothricin) | Resistance of microorganism 2-2 to antibiotic ([2]; listed as nourseothricin) | Resistance of microorganism NG7 to antibiotic ([3]; listed as nourseothricin)
CC[C@@H](C)[C@@H]1NC(=O)[C@@H]2CCCN2C(=O)[C@H](Cc2ccccc2)N(C)C(=O)[C@H](Cc2ccccc2)NC(=O)[C@H](C(C)C)N(C)C(=O)[C@@H]([C@H](C)CC)OC(=O)[C@H](C(C)(C)O)N(C)C(=O)[C@H](CC(C)C)NC(=O)[C@H](C(C)C)N(C)C1=O [Aureobasidin A, aureobasidin A] (cyclo(F[NMeF]P[aIle][NMeV]L[NMeVal(β-OH)][X1][NMeV])) | − | no resistance | − | no resistance | − | no resistance |  |  |  |  |  |  |  |  | 
C[C@@H]1C[C@@H]([C@H](O)CC2CC(=O)NC(=O)C2)C(=O)[C@@H](C)C1 [Cycloheximide, cycloheximide] | + |  | + |  | + |  | resistance | resistance | resistance |  |  |  |  |  | 
CN[C@@H]1[C@@H](O)[C@@H](O[C@@H]2[C@@H](O)[C@H](O[C@H]3O[C@H]([C@@H](C)O)[C@@H](O)[C@H](O)[C@H]3N)[C@@H](N)C[C@H]2N)OC[C@]1(C)O [G418] | resistance and + |  | resistance and + |  | resistance and + |  |  |  |  |  |  |  |  |  | 
Cc1c(N)nc([C@H](CC(N)=O)NC[C@H](N)C(N)=O)nc1C(=O)N[C@H](C(=O)N[C@H](C)[C@@H](O)[C@H](C)C(=O)N[C@H](C(=O)NCCC1=N[C@@H](c2nc(C(=O)NCCCCN=C(N)N)cs2)CS1)[C@@H](C)O)[C@@H](O[C@@H]1O[C@@H](CO)[C@@H](O)[C@H](O)[C@@H]1O[C@H]1O[C@H](CO)[C@@H](O)[C@H](OC(N)=O)[C@@H]1O)c1cnc[nH]1 [Zeocin, zeocin] | + |  | + |  | + |  |  |  |  | resistance | resistance | resistance |  |  | 
nourseothricin | − |  | − |  | − |  |  |  |  |  |  |  | no resistance | no resistance | no resistance
